Values of other authors, collected in patent publication US20070219192A1, “Certain chemical entities, compositions, and methods” (priority 2005, published 2007).

Test system: A549 cells
Conditions: data provided by National Cancer Institute, Developmental Therapeutic Program

Row | Compound | GI50 [nM]
1 | O=c1[nH]cc(F)c(=O)[nH]1 [5-fluorouracil] | 1000
2 | COc1cccc2c1C(=O)c1c(O)c3c(c(O)c1C2=O)C[C@@](O)(C(=O)CO)C[C@@H]3O[C@H]1C[C@H](N)[C@H](O)[C@H](C)O1 [doxorubicin] | 63
3 | NC(=O)NO [hydroxyurea] | 500000
4 | CC(=O)O[C@H]1C(=O)[C@@]2(C)[C@H]([C@H](OC(=O)c3ccccc3)[C@]3(O)C[C@H](OC(=O)[C@H](O)[C@@H](NC(=O)c4ccccc4)c4ccccc4)C(C)=C1C3(C)C)[C@]1(OC(C)=O)CO[C@@H]1C[C@@H]2O [paclitaxel] | 4
